The NIST ThermoML archive (doi:10.1016/j.tca.2014.08.035)
Numbers after ± are expanded uncertainties. Values belong to the compound of their own block, whether it stands above or below them.

Columns and labels:
[1] = DTA
[2] = Molar enthalpy of transition or fusion; conditions: DSC
[3] = molar enthalpy of transition or fusion; conditions: 640.05 K; Crystal 2; DSC
[4] = Solid-liquid equilibrium temperature; conditions: 10000 kPa; Crystal 2; DTA

- Normal melting temperature ([1]; Crystal): 144.20 ± 0.5 °C
- Molar enthalpy of transition or fusion ([2]; Crystal): 3.51 ± 0.143 kcal/mol
SMILES: O=S(=O)([O-])O.[NH4+] [ammonium acid sulfate]

- Normal melting temperature ([1]; Crystal): 132.90 ± 0.4 °C
- Molar enthalpy of transition or fusion ([2]; Crystal): 3.99 ± 0.143 kcal/mol
SMILES: N.NS(=O)(=O)O [ammonium sulfamate]

- molar enthalpy of transition or fusion [3]: 0.669 ± 0.191 kcal/mol
- Molar enthalpy of transition or fusion ([2]; Crystal 3): 0.681 ± 0.43 kcal/mol
- Solid-liquid equilibrium temperature [4]: 640.05 ± 0.8 K
SMILES: N.N.O=S(=O)(O)O [ammonium sulfate]

- Normal melting temperature ([1]; Crystal 1): 229.00 ± 4 °C
- Triple point temperature ([1]; Crystal 2): 412.85 ± 0.5 K
- Molar enthalpy of transition or fusion ([2]; Crystal 1): 7.65 ± 1.91 kcal/mol
- Molar enthalpy of transition or fusion ([2]; Crystal 2): 0.645 ± 0.0717 kcal/mol
SMILES: O=S(=O)([O-])O.O=S(=O)([O-])[O-].[NH4+].[NH4+].[NH4+] [triammonium hydrogen disulfate]
